# Results: PMC3816525 (Investigational new drugs, 2011)
# Key:
# [1] = human, in vivo
# clinical [2] = details: human, in vivo, AUC(0–24h)
# [3] = cited from earlier work
# [4] = human, in vivo; remark: listed apart in the source
# clinical [5] = details: human, in vivo, AUC(0–24h); remark: listed apart in the source
# mantle cell lymphoma = details: phase II, single agent; cited from earlier work
# glioblastoma multiforme = details: two trials in glioblastoma multiforme; cited from earlier work
# advanced breast cancer = details: heavily pretreated advanced breast cancer; cited from earlier work
smiles,measurement,setting,value
CCOc1cc2ncc(C#N)c(Nc3ccc(F)c(Cl)c3)c2cc1NC(=O)/C=C/CN(C)C [EKB-569],Accumulation: AUC(0–24h) Day 6/Day 1,[1],1.78±0.56
same,Accumulation: AUC(0–24h) Day 7/Day 6,[1],1.19±0.28
same,Accumulation: AUC(0–24h) Day 9/Day 6,[1],1.40±0.33
same,Increase of AUC(0-24h) on Day 7,[1],about 19%
same,AUC(0-t),clinical [2]; Day 6,378 ± 144 ng·h/mL
same,AUC(0-t),clinical [2]; Day 7,426 ± 127 ng·h/mL
same,AUC(0-t),clinical [2]; Day 9,493 ± 112 ng·h/mL
same,"MTD, single agent","[3]; advanced solid tumors, DLT grade 3 diarrhea",75 mg daily
same,Recommended dose in combination with FOLFIRI,[3]; in vivo,25 mg daily
CCOc1cc2ncc(C#N)c(Nc3ccc(F)c(Cl)c3)c2cc1NC(=O)/C=C/CNC [N-desmethyl EKB-569],"AUC(0–24h), Day 6",[1],52.7 ± 61.2 ng·h/mL
same,"AUC(0–24h), Day 7",[1],60.8 ± 52.8 ng·h/mL
same,"AUC(0–24h), Day 9",[1],75.2 ± 51.0 ng·h/mL
CO[C@H]1C[C@@H]2CC[C@@H](C)[C@@](O)(O2)C(=O)C(=O)N2CCCC[C@H]2C(=O)O[C@H]([C@H](C)C[C@@H]2CC[C@@H](O)[C@H](OC)C2)CC(=O)[C@H](C)/C=C(\C)[C@@H](O)[C@@H](OC)C(=O)[C@H](C)C[C@H](C)/C=C/C=C/C=C/1C [sirolimus],Accumulation: AUC(0–24h) Day 3/Day 1,[4],1.37±0.44
same,Accumulation: AUC(0–24h) Day 15/Day 1,[4],0.99±0.27
same,Accumulation: AUC(0–24h) Day 17/Day 3,[4],1.78±0.63
same,Change of AUC(0-24h) on Day 15 compared to day 1,[4],similar
same,AUC(0-t),clinical [5]; Day 3,437 ± 116 ng·h/mL
same,AUC(0-t),"clinical [5]; po, 30 mg, Day 1",348 ± 158 ng·h/mL
CO[C@H]1C[C@@H]2CC[C@@H](C)[C@@](O)(O2)C(=O)C(=O)N2CCCC[C@H]2C(=O)O[C@H]([C@H](C)C[C@@H]2CC[C@@H](OC(=O)C(C)(CO)CO)[C@H](OC)C2)CC(=O)[C@H](C)/C=C(\C)[C@@H](O)[C@@H](OC)C(=O)[C@H](C)C[C@H](C)/C=C/C=C/C=C/1C [temsirolimus],Change of AUC(0-24h) on Day 15 compared to day 1,[4],66%
same,Median TTP,mantle cell lymphoma,6 months
same,Overall response rate,mantle cell lymphoma,38–41%
same,TTP,glioblastoma multiforme,9–38 weeks
same,Partial response rate,advanced breast cancer,9.2%
same,AUC(0-t),clinical [5]; Day 3,68.3 ± 20.4 ng·h/mL
same,AUC(0-t),"clinical [5]; po, 30 mg, Day 1",83.9 ± 27.6 ng·h/mL
